Measured values from article PMC7306898, “Concentration-Dependent Activity of Hydromethylthionine on Clinical Decline and Brain Atrophy in a Randomized Controlled Trial in Behavioral Variant Frontotemporal Dementia” (Journal of Alzheimer's Disease, 2020).

Key:
[1] = system: bvFTD patients; experiment: Addenbrookes Cognitive Examination – Revised (ACE-R), 52-week Phase III trial TRx-237-007; assay type: in vivo, human
Excerpt: The study was designed as a 52-week Phase III, randomized, controlled, double-blind, parallel-group trial conducted between May 2013 and February 2016 at 70 sites in Canada, United States, Australia, Asia, and Europe. Eligible patients had to be younger than 80 years of age with a diagnosis of bvFTD according to criteria revised by the International bvFTD Criteria Consortium [[1, 50]], with Mini-Mental Status Examination (MMSE) score greater than or equal to 20 at screening. In order to limit inclusion of bvFTD phenocopy cases, there was an additional requirement that patients had to meet the criterion of having definite brain atrophy in frontal and/or temporal lobes scoring 2 or more on a scale previously developed by Kipps et al.. Concomitant use of acetylcholinesterase inhibitors (AChEIs) or memantine (or both) was permitted provided this was at a stable dose for at least 18 weeks before randomization to minimize any potential early symptomatic effects of these treatments. Concomitant use of antidepressant, antipsychotic (except clozapine or olanzapine), and sedative medications was also permitted at stable doses where clinically feasible. Each patient had one or more study partners participate with them in the trial as informants. […] A detailed list of inclusion and exclusion criteria is in the protocol provided in the Supplementary Material. […]
The two doses were provided in identical blister packages as visually identical oral tablets to be taken for up to 52 weeks. […] Other outcomes included: Modified Alzheimer’s Disease Cooperative Study – Clinical Global Impression of Change (Modified-CGIC) determined by a third independent rater; Frontotemporal Dementia Rating Scale (FRS); MMSE (from MMSE items incorporated into ACE-R); Addenbrookes Cognitive Examination – III (a revised version of ACE-R which excludes MMSE items subject to copyright restrictions); change in brain volume measured by MRI in frontal and temporal lobes (FTV) and lateral ventricles (LVV); and the effect of hydromethylthionine in patients with known genetic mutations associated with bvFTD. […]

[2] = system: bvFTD patients; experiment: Exposure-response and expanded Hill equation analysis; assay type: in vivo, human
Method: The protocol specified that PK plasma sampling was to be conducted only at sites with adequate facilities (i.e., a refrigerated centrifuge and adequate capability to freeze samples reliably). Blinded analyses were conducted at the University of Aberdeen GLP Test Facility. […] The method was validated for use in the Phase III studies over the range 0.2 to 10 ng/ml. […] Model development and estimation of steady state maximum plasma concentration (Cmax,ss) were determined independently by the Institute of Clinical Pharmacodynamics (ICPD, NY, USA). Cmax,ss estimates using a model validated in Phase I studies were based on in-clinic plasma concentration data obtained on Day 1 when the dose-sampling interval was accurately recorded. […] Change in ACE-R, ACE-III, FAQ, MMSE, Modified-CGIC, FRS, whole brain volume (WBV), lateral ventricular volume (LVV), and frontotemporal volume (FTV), as well as UPDRS Part III, were expressed as a function of Cmax,ss estimates grouped into four groups described in the results section. Cmax,ss values outside 3x the interquartile range were excluded from determination of concentration-response relationships, but were included in inferential statistical analyses.
A further analysis was undertaken (HS, BOS) using a modified form of the Hill equation which is commonly used in the analysis of concentration-response data in order to estimate the minimum and maximum plasma concentrations for expected treatment response over 52 weeks. […] In addition, a linear term was added to permit trends occurring at high concentrations to be included in the model. […] The modified Hill equation was applied to the data in the form:
change in parameter = Emin - (Emax x ([C]- 0.29))/(EC50 + ([C] -0.29)) + (A x ([C] -0.29))
where dose is in mg/day and Cmax,ss is in ng/ml units.

[3] = system: AD patients; design: method as in PMID 31658058; conditions: cited from earlier work

CN(C)c1ccc2c(c1)Sc1cc(N(C)C)ccc1N2 [hydromethylthionine, leuco-methylthioninium bis(hydromethanesulphonate)]
ACE-R: Decline±SEM for LMTM 8 mg/day group ([1]; 8 mg/day (n = 110), modeled change from baseline at 52 weeks, MITT): –9.98±1.39 | reduction in decline on the ACE-R scale ([1]; 8 mg/day, plasma levels above vs below […] threshold): 45% | ACE-R: Difference±SEM from LMTM 8 mg/day for 200 mg/day ([1]; 200 mg/day (n = 104) vs 8 mg/day, 52 weeks, MITT): –0.49±2.10 | plasma levels over which there are steep concentration-response relationships on clinical and MRI outcomes ([2]; 8 mg/day dose, bvFTD): 0.3 to 0.6 ng/mL | dose at which pharmacological activity is predicted to peak in bvFTD ([2]; Hill equation analyses): ~30 mg/day | doses at which treatment responses in bvFTD are predicted to be maximal / roughly comparable ([2]; Hill equation analysis): 20 to 60 mg/day | predicted treatment effect on whole brain atrophy ([2]; at 30 mg/day dose): 18.52 cm^3 | predicted treatment effect on the FAQ scale ([2]; at 30 mg/day dose, mean, bootstrap analysis): 7.73 units | theoretical dose corresponding to the upper limiting concentration ([2]; expanded Hill equation): 301 mg/day | lower (minimum) limiting plasma concentration required for treatment response ([2]; expanded Hill equation, 8 mg/day): 0.29 ng/mL | upper limiting concentration at which the treatment effect would be lost ([2]; expanded Hill equation, whole brain volume, 200 mg/day terciles): 13.6 ng/mL | plasma concentration (Cmax,ss) threshold required for clinical pharmacological activity in bvFTD ([2]; upper limit of the lowest 35% group at 8 mg/day): 0.346 ng/ml | steady state plasma levels with steep concentration-response relationships on cognitive and MRI outcomes in AD ([3]; 8 mg/day dose, AD ref 49): 0.3 to 0.8 ng/mL | estimated brain concentration required for pharmacological activity [3]: 0.02–0.06 μM | plasma concentration threshold (Cmax,ss) identified in mild/moderate AD [3]: 0.373 ng/mL | predicted optimal dose for treatment of AD [3]: about 16 mg/day | dose sufficient to ensure that all patients have plasma levels above the threshold required for pharmacological activity ([3]; combined AD and bvFTD populations ref 49): 16 mg/day | plasma concentrations not associated with any additional benefit in AD ([3]; doses 150–250 mg/day, AD ref 49): 4 to 21 ng/mL
